The values below come from ChEMBL document CHEMBL1127581, “Evolution of a novel series of [(N,N-dimethylamino)propyl]- and piperazinylbenzanilides as the first selective 5-HT1D antagonists” (J Med Chem, 1994).

Molecules are shown by their SMILES.

The target in experiment [1] is 5-hydroxytryptamine receptor 1B (Rattus norvegicus, UniProt P28564). Nature of the experiment: In vitro binding affinity towards 5-hydroxytryptamine 1B receptor in rat striatal membrane with [125I]- iodocyanopindolol. Format: cell membranes, Striatum.
5-hydroxytryptamine receptor 1B, sequence (P28564 whole entry): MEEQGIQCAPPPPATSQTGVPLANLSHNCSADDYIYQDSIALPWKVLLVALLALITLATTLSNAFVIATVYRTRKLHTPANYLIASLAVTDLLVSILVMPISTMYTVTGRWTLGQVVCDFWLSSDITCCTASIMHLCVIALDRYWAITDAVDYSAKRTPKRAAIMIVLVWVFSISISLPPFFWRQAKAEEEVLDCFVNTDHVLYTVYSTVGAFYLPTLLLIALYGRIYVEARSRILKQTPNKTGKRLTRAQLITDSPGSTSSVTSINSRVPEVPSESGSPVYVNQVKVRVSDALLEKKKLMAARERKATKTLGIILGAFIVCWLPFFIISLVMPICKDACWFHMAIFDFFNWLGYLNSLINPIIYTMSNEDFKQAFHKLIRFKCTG
The next experiment deals with T1, D(4) dopamine receptor (Homo sapiens, UniProt P21917).
T1 sequence (P21917 whole entry): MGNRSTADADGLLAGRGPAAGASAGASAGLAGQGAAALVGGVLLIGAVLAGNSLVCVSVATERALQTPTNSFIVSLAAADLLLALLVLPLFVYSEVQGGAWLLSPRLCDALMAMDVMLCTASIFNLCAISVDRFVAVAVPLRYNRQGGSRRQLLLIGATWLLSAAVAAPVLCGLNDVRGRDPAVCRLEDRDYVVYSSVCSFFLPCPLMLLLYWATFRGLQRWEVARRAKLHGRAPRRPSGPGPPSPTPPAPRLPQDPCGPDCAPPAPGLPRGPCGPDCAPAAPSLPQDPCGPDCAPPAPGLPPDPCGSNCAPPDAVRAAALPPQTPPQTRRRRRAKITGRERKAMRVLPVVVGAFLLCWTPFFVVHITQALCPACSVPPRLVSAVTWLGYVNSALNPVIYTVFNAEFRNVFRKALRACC
The experiment can be described thus: Binding affinity against dopamine D4 receptor.

In experiment [2] the target is Serotonin 3 (5-HT3) receptor. The experiment can be described thus: Binding affinity against the 5-hydroxytryptamine 3 receptor. Type of experiment: protein-complex assay.
Experiment [3] addresses 5-hydroxytryptamine receptor 1D (Cavia porcellus, UniProt Q60484). The experiment can be described thus: In vitro binding affinity towards 5-hydroxytryptamine 1D receptor in guinea-pig striatum in presence of BMY-7378 and mesulergine. Format: tissue-based.
Experiment [4] concerns the target 5-hydroxytryptamine receptor 4 (Homo sapiens, UniProt Q13639). Nature of the experiment: Binding affinity against 5-hydroxytryptamine 4 receptor.
For experiment [5], the target named is T2, Muscarinic acetylcholine receptor M1 (Homo sapiens, UniProt P11229).
T2 sequence (P11229 whole entry): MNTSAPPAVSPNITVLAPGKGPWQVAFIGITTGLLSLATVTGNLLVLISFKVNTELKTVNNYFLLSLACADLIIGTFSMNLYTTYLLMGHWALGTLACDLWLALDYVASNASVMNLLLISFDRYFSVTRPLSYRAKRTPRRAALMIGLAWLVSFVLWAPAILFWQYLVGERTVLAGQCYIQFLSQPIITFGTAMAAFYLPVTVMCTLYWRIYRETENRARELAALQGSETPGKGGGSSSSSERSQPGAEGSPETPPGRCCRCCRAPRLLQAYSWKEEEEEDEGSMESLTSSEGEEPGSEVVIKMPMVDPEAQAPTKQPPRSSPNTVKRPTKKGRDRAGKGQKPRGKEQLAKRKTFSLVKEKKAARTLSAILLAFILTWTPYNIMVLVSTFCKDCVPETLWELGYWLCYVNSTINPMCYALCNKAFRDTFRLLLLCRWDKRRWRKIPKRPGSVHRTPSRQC
The experiment can be described thus: Binding affinity against muscarinic M1 receptor.

Experiment [6] has as its target Muscarinic acetylcholine receptor M3 (Homo sapiens, UniProt P20309). The experiment can be described thus: Binding affinity against muscarinic M3 receptor.
Experiment [7] deals with T3, Adrenergic receptor alpha-1 (Homo sapiens, UniProt P35348+P25100+P35368).
T3 sequence (P35348 whole entry): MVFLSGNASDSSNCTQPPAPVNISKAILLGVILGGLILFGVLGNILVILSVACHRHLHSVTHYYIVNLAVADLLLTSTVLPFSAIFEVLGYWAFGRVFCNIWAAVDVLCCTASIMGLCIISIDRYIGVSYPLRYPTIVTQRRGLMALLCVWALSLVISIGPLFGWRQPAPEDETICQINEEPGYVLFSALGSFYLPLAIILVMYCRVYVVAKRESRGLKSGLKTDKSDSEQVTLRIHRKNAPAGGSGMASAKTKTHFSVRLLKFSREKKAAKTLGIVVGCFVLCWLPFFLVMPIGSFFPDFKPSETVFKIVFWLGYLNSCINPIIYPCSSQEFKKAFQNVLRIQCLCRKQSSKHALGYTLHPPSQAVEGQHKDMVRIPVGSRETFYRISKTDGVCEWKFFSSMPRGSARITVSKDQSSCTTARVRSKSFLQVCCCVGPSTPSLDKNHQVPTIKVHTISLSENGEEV
T3 sequence (P25100 whole entry): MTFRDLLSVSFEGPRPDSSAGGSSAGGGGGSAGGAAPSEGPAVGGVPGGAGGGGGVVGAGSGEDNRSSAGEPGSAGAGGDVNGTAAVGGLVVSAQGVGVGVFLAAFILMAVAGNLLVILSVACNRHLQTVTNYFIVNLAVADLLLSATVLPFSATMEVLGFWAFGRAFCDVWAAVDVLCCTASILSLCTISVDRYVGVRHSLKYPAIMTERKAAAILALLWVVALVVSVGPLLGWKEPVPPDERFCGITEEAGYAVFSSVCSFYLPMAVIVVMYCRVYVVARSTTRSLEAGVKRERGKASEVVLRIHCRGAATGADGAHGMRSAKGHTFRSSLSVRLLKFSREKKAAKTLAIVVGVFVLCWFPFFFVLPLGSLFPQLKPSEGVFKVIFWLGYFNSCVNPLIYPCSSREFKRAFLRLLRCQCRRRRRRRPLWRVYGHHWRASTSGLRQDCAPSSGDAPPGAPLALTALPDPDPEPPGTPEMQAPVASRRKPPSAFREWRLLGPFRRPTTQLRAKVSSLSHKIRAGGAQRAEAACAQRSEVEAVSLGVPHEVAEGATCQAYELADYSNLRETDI
T3 sequence (P35368 whole entry): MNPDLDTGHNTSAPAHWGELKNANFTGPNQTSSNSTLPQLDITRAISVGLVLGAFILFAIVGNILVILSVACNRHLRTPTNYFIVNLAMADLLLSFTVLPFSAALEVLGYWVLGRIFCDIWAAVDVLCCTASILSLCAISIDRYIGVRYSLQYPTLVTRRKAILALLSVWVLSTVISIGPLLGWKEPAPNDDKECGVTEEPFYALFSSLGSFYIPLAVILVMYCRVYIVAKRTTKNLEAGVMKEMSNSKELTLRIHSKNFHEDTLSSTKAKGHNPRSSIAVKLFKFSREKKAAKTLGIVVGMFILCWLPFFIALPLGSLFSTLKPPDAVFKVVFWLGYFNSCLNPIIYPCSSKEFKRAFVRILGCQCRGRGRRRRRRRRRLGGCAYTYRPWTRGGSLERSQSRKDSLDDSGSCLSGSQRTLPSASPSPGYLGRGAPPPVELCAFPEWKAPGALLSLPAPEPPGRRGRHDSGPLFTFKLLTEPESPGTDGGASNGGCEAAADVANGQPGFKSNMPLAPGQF
Nature of the experiment: Binding affinity against alpha-1 adrenoceptor. Format: protein assay.

For a further experiment, the species on record is Oryctolagus cuniculus. Nature of the experiment: Tested in vitro for its ability to block 5-HT2A induced contraction of rabbit isolated aorta. Type of experiment: functional.

Muscarinic acetylcholine receptor M3, sequence (P20309 whole entry): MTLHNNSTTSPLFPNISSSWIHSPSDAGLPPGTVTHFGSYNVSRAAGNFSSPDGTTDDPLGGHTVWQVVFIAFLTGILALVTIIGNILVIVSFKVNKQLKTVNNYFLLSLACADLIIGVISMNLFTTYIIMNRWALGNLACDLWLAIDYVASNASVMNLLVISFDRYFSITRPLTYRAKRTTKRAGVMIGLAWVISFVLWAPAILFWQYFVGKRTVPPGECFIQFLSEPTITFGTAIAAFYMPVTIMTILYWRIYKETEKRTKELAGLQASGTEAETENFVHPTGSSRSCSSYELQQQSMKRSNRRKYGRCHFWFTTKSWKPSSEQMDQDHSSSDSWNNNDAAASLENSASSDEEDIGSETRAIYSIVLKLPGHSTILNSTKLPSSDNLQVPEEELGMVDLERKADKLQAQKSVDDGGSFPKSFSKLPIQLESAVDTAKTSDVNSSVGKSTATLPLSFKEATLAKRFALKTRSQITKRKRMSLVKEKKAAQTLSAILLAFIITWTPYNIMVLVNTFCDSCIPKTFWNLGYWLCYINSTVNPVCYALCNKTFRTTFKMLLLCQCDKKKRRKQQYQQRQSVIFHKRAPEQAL
5-hydroxytryptamine receptor 1D, sequence (Q60484 whole entry): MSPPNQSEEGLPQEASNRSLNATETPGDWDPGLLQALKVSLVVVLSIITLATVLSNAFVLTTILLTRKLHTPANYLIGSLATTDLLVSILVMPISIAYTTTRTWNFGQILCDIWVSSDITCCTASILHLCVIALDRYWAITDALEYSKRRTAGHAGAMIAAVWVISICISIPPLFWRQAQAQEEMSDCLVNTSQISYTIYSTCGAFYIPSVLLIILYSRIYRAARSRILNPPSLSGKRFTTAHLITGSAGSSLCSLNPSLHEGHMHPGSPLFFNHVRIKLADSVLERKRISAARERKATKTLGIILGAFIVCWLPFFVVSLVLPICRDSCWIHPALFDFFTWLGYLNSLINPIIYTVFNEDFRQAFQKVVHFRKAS
5-hydroxytryptamine receptor 4, sequence (Q13639 whole entry): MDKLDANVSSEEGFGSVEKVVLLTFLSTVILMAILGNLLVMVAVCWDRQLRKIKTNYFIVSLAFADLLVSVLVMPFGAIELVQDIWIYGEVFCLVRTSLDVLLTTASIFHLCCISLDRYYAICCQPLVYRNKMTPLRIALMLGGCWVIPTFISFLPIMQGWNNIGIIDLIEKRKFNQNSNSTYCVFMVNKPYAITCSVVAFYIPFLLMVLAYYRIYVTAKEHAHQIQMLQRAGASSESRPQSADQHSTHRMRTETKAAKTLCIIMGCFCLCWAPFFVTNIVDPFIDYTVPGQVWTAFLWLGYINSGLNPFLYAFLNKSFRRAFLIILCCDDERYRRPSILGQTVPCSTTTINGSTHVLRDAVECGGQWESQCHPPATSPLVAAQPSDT

The term Ki denotes a dissociation constant, usually derived from enzyme kinetics or from competition with a known ligand. For orientation: pKB means −log10 of the KB, conventionally taken in molar units. A lower pKB goes with a large KB. Consider `COc1ccc(NC(=O)c2ccc(-c3ccc(-c4noc(C)n4)cc3C)cc2)cc1N1CCN(C)CC1` [GR-127935], for which the Ki in experiment [1] was 3.16 nM; at D(4) dopamine receptor, above 10000 nM; in experiment [3], 3.16 nM; in experiment [4] it was above 10000 nM; in [5], above 1000 nM; in [6] it was above 1000 nM. Moreover, the figures for the “Log Ki” value in experiment [2] and in experiment [7] were -5.2 and above -6, respectively. The same molecule had a negative-log KB (pKB) in the experiment listed under Oryctolagus cuniculus of 6.4.
